System: CHO DG44 cell line
Assay: Effective concentration range of THF: suspension growth of CHO DG44 in HY-CDM media
Type: cell-based, Chinese hamster
Conditions: HY-CDM
Source text: 1. Cell line and media: CHO DG44 cell line was used as a DHFR-deficient cell line. The cell line was passaged 80 times or more and suspension adapted in HY-CDM (in-house) media as chemically defined media. The suspension-adapted cell line was used to evaluate the influence of tetrahydrofolate (THF) and dihydrofolate (DHF) and the growth characteristics in commercial chemically defined media. The HY-CDM media were composed of chemically defined components only. Each HY-CDM medium further included a growth factor. HY-CDM media used in Examples 1, 3, and 4 were free of an animal derived lipid mixture, and HY-CDM media used in Example 2 were supplemented with cod liver oil.
2. Cell suspension culture: The cell line was inoculated at a density of 4×10^5 cells/ml and cultured in an Erlenmeyer flask with a 30 ml/125 ml working volume on an orbital shaker at 120 rpm under humidified conditions at 37° C. and 5% CO2. Before inoculation, the cells were centrifuged at 1,000 rpm (×162 g) for 5 min, the supernatant was discarded, and the remaining cells were dispersed into single cells in the heated medium. The cells were passaged three times to minimize the influence of the remaining medium under the experimental conditions. The subcultured cells were evaluated.
3. Density of live cells: The density of live cells was analyzed using a hemocytometer (Neubauer improved bright-line, Marienfeld, Germany), an inverted microscope (CK30, Olympus, Japan), and trypan blue dye exclusion.
In this example, the effective concentration range of THF inducing the suspension growth of the CHO DG44 cell line in the HY-CDM media was evaluated with varying amounts of THF.
To this end, the CHO DG44 cell line was passaged three time at a THF concentration of 0-480 mg/L, and their maximum cell densities and doubling times were measured.

tetrahydrofolate [THF]
Doubling time, Average (THF 0.0016 mg/L): 24.7 h | Doubling time, Passage 1 (THF 0.0016 mg/L): 26.8 h | Doubling time, Passage 2 (THF 0.0016 mg/L): 27.2 h | Doubling time, Passage 3 (THF 0.0016 mg/L): 20.3 h | Maximum cell density, Average (THF 0.0016 mg/L): 18.9 ×10^5 cells/ml | Maximum cell density, Passage 1 (THF 0.0016 mg/L): 19.8 ×10^5 cells/ml | Maximum cell density, Passage 2 (THF 0.0016 mg/L): 18.2 ×10^5 cells/ml | Maximum cell density, Passage 3 (THF 0.0016 mg/L): 18.8 ×10^5 cells/ml | Doubling time, Average (THF 0.0031 mg/L): 24.9 h | Doubling time, Passage 1 (THF 0.0031 mg/L): 27.1 h | Doubling time, Passage 2 (THF 0.0031 mg/L): 27.1 h | Doubling time, Passage 3 (THF 0.0031 mg/L): 20.6 h | Maximum cell density, Average (THF 0.0031 mg/L): 19.8 ×10^5 cells/ml | Maximum cell density, Passage 1 (THF 0.0031 mg/L): 20.6 ×10^5 cells/ml | Maximum cell density, Passage 2 (THF 0.0031 mg/L): 18.2 ×10^5 cells/ml | Maximum cell density, Passage 3 (THF 0.0031 mg/L): 20.5 ×10^5 cells/ml | Doubling time, Average (THF 0.0063 mg/L): 23.6 h | Doubling time, Passage 1 (THF 0.0063 mg/L): 26.4 h | Doubling time, Passage 2 (THF 0.0063 mg/L): 24.3 h | Doubling time, Passage 3 (THF 0.0063 mg/L): 20.1 h | Maximum cell density, Average (THF 0.0063 mg/L): 21.3 ×10^5 cells/ml | Maximum cell density, Passage 1 (THF 0.0063 mg/L): 21.4 ×10^5 cells/ml | Maximum cell density, Passage 2 (THF 0.0063 mg/L): 21.2 ×10^5 cells/ml | Maximum cell density, Passage 3 (THF 0.0063 mg/L): 21.3 ×10^5 cells/ml | Doubling time, Average (THF 0.0125 mg/L): 23.5 h | Doubling time, Passage 1 (THF 0.0125 mg/L): 24.6 h | Doubling time, Passage 2 (THF 0.0125 mg/L): 25.5 h | Doubling time, Passage 3 (THF 0.0125 mg/L): 20.3 h | Maximum cell density, Average (THF 0.0125 mg/L): 21.5 ×10^5 cells/ml | Maximum cell density, Passage 1 (THF 0.0125 mg/L): 23.6 ×10^5 cells/ml | Maximum cell density, Passage 2 (THF 0.0125 mg/L): 18.8 ×10^5 cells/ml | Maximum cell density, Passage 3 (THF 0.0125 mg/L): 22.0 ×10^5 cells/ml | Doubling time, Average (THF 0.0250 mg/L): 22.5 h | Doubling time, Passage 1 (THF 0.0250 mg/L): 25.8 h | Doubling time, Passage 2 (THF 0.0250 mg/L): 23.2 h | Doubling time, Passage 3 (THF 0.0250 mg/L): 18.6 h | Maximum cell density, Average (THF 0.0250 mg/L): 20.5 ×10^5 cells/ml | Maximum cell density, Passage 1 (THF 0.0250 mg/L): 22.4 ×10^5 cells/ml | Maximum cell density, Passage 2 (THF 0.0250 mg/L): 18.0 ×10^5 cells/ml | Maximum cell density, Passage 3 (THF 0.0250 mg/L): 21.0 ×10^5 cells/ml | Doubling time, Average (THF 0.0500 mg/L): 20.9 h | Doubling time, Passage 1 (THF 0.0500 mg/L): 22.8 h | Doubling time, Passage 2 (THF 0.0500 mg/L): 21.7 h | Doubling time, Passage 3 (THF 0.0500 mg/L): 18.2 h | Maximum cell density, Average (THF 0.0500 mg/L): 20.5 ×10^5 cells/ml | Maximum cell density, Passage 1 (THF 0.0500 mg/L): 22.0 ×10^5 cells/ml | Maximum cell density, Passage 2 (THF 0.0500 mg/L): 18.5 ×10^5 cells/ml | Maximum cell density, Passage 3 (THF 0.0500 mg/L): 21.0 ×10^5 cells/ml | Doubling time, Average (THF 0.1000 mg/L): 21.2 h | Doubling time, Passage 1 (THF 0.1000 mg/L): 22.7 h | Doubling time, Passage 2 (THF 0.1000 mg/L): 22.7 h | Doubling time, Passage 3 (THF 0.1000 mg/L): 18.2 h | Maximum cell density, Average (THF 0.1000 mg/L): 24.8 ×10^5 cells/ml | Maximum cell density, Passage 1 (THF 0.1000 mg/L): 27.6 ×10^5 cells/ml | Maximum cell density, Passage 2 (THF 0.1000 mg/L): 21.8 ×10^5 cells/ml | Maximum cell density, Passage 3 (THF 0.1000 mg/L): 24.9 ×10^5 cells/ml | Doubling time, Average (THF 0.2000 mg/L): 20.8 h | Doubling time, Passage 1 (THF 0.2000 mg/L): 22.7 h | Doubling time, Passage 2 (THF 0.2000 mg/L): 21.4 h
